Blank lines part the entries; values can stand above or below the compound they belong to.
Legend:
Assay type in all cases: cell-based, Human
[1] = test system: U251 cells; assay: Cell viability assay (Cell Counting Kit-8), U251; conditions: for IC50: 72 hr, CCK-8, mean ± SEM
Description: (§1) Cell viability was determined by using a Cell Counting Kit‐8 (Dojindo, Japan). Briefly, cells were harvested from flasks and plated in 96‐well cell culture plates at 5 × 10^3 per well and cultured overnight. […] Control cells were treated with cell culture medium and measured at the same time point as treatment groups. CCK‐8 solution (10 μl) was added to each well of the 96‐well plates, and the cultures were incubated for 30 min at 37°C. Absorbance at 450 nm was measured using an automatic microplate reader (Molecular Devices, San Jose, CA, USA).
(§2) Figure 2 Effect of the Na^+/Ca^2+ exchanger (NCX) blockers on viability of human glioblastoma cell lines. (a, b) Viability of adult glioblastoma cell lines (U87 and U251) after exposure to NCX blockers bepridil, KB‐R7943, SEA0400, SN‐6, or YM244769 at 0–100 μM for 72 hr. n = 5 independent tests per group. (c) Viability of paediatric glioblastoma cell line SF188 after 72‐hr incubation with the same NCX blockers at 0–100 μM. n = 5 independent tests per group. (d) For U87, U251, and SF188 cell lines, concentration of the NCX blockers required to produce half maximal inhibition (IC50: μM, mean ± SEM) of cell viability.

[2] = test system: SF188 cells; assay: Cell viability assay (Cell Counting Kit-8), SF188; conditions: for Effect on viability of paediatric glioblastoma cell line SF188 (in words): 0–100 μM; for Effect on viability of paediatric glioblastoma cell line SF188 (in words) / IC50: 72 hr; for IC50: CCK-8, mean ± SEM
Description: as §1, §2

[3] = test system: [Ca^2+]i in U87 cells; assay: Ca2+ imaging (Fluo-4 AM) of U87 cells; conditions: for Effect on [Ca2+]i level in Ca2+-free solution / Effect on intracellular Ca2+ pool and ER Ca2+ transporting: Ca2+‐free solution; for Effect on intracellular Ca2+ pool and ER Ca2+ transporting: followed by 5‐μM thapsigargin; for Effect on [Ca2+]i level: solution containing 2‐mM Ca2+, bepridil or KB‐R7943 25 or 50 μM, CB‐DMB 2 and 4 μM
Description: Cells were cultured in 96‐well plates at 8 × 10^3 per well and loaded with the cell membrane‐permeable Ca^2+ dye Fluo‐4 AM (5 μM) in 100‐μl HEPES‐buffered solution for 50 min. The solution contained (mM): 135 NaCl, 3 KCl, 2 CaCl2, 1 MgCl2, 10 glucose, and 10 HEPES, supplemented with 1% FBS at pH 7.4. To prepare the Ca^2+‐free solution, 2‐mM CaCl2 was replaced with 1‐mM EGTA in the HEPES‐buffered solution. The 96‐well plate containing the Fluo‐4 AM‐loaded cells was mounted in a Leica TCS SP8 confocal system (Leica Microsystems, Wetzlar, Germany). The confocal microscope armed with 488‐nm laser light was employed to excite the dynamic fluorescent signals in time and synchronously, while test regents were added to cells. To do Na^+ imaging, Fluo‐4 AM was replaced with the cell membrane‐permeable Na^+ dye Asante NaTrium Green‐2 AM (ANG‐2 AM) at 5 μM, which was excited by 514‐nm laser light. Visual inspection and fluorescent imaging were carried out at room temperature. The imaging data were analysed with the software https://leica-las-af-lite.software.informer.com/ 2.5 (Leica). The imaging traces shown are representative of at least three separate experiments; 12–18 cells were imaged in each experiment.

[4] = test system: U87 cells; assay: Annexin V–FITC/PI apoptosis assay of U87 cells; conditions: bepridil 25 μM 6–48 hr, CB‐DMB 3.5 μM 6–48 hr, KB‐R7943 25 μM 20 hr, BAPTA‐AM 10 μM 18 hr, CC‐930 10 μM, PD169316 10 μM
Description: U87 cells were seeded in six‐well plates (Corning, Corning, NY, USA) with 1 × 10^6 cells per well and treated with NCX blockers, BAPTA‐AM, or MAPK inhibitors. Drug treatment was performed by the person who is blinded to the experimental groups. After treatment, cells were harvested in 15‐ml tubes and washed with cold sterile PBS. After being centrifuged, cells were fixed with 70% ethanol […] at 4°C for at least 1 hr. For propidium iodide (PI) staining, cells were washed one time with PBS and then were treated with ribonuclease A (RNase; 100 μg·ml^−1) for 30 min. PI (10 μg·ml^−1) was added, and stained cells were kept in the dark at 4°C until analysis. The number of cells analysed for each sample was 10,000 events. FACS analysis was performed using the Coulter CytoFlexS flow cytometer (Beckman Coulter, CA, USA), and the percentage of cells in the G0/G1, S, and G2/M phases was determined using cell cycle analysis software, ModFit LT 5.0 (Verity Software House, Topsham, ME, USA). For the apoptosis assay, cells were harvested and washed twice with cold PBS and resuspended at a density of 1 × 10^6 cells·ml^−1 in 100 μl of binding buffer containing 5 μl of Annexin V–FITC and 5 μl of PI working solution (100 μg·ml^−1). After incubation at room temperature for 15 min in the dark, 400 μl of binding buffer was added to each sample. Apoptosis was analysed by Coulter CytoFlexS flow cytometer (Beckman Coulter) for at least 10,000 events, and data were analysed with the software, CyExpert 2.0 (Beckman Coulter).

Compound: CC(C)COCC(CN(Cc1ccccc1)c1ccccc1)N1CCCC1 (stereo not shown) [Bepridil, N‐benzyl‐N‐(3‐isobutoxy‐2‐pyrrolidin‐1‐yl‐propyl)aniline]
- Effect on growth (viability) of U251 cells ([1]; 25 μM, 48 hr): markedly suppressed growth
- IC50 ([1]; Homo sapiens, U-251): 14.9 ± 1.1 µM
- Effect on viability of paediatric glioblastoma cell line SF188 (in words) [2]: suppressed by bepridil and KB‐R7943 in a dose‐dependent manner
- Effect on growth (viability) of SF188 cells ([2]; 25 μM, 48 hr): markedly suppressed growth
- IC50 ([2]; Homo sapiens, SF-188): 12.9 ± 1 µM
- Effect on [Ca2+]i level in Ca2+-free solution [3]: did not show [Ca^2+]i elevation or fluctuation
- Effect on intracellular Ca2+ pool and ER Ca2+ transporting [3]: neither bepridil nor KB‐R7943 affect intracellular Ca^2+ pool and Ca^2+ transporting on the ER membrane
- Effect on [Ca2+]i level [3]: quick [Ca^2+]i increase and sustained [Ca^2+]i elevation
- Effect on apoptosis (Annexin V+ cells), compound alone [4]: time‐dependent increase of apoptotic (Annexin V^+) cells

- IC50 [1]: 29.2 ± 1.1 µM
Compound: CS(=O)(=O)O.N=C(N)SCCc1ccc(OCc2ccc([N+](=O)[O-])cc2)cc1 [KB‐R7943, 2‐[4‐[(4‐nitrophenyl)methoxy]phenyl]ethyl ester carbamimidothioic acid methanesulfonate]
- Effect on viability of paediatric glioblastoma cell line SF188 (in words) [2]: suppressed by bepridil and KB‐R7943 in a dose‐dependent manner
- IC50 [2]: 17.3 ± 1 µM
- Effect on [Ca2+]i level in Ca2+-free solution [3]: did not show [Ca^2+]i elevation or fluctuation
- Effect on intracellular Ca2+ pool and ER Ca2+ transporting [3]: neither bepridil nor KB‐R7943 affect intracellular Ca^2+ pool and Ca^2+ transporting on the ER membrane
- Effect on [Ca2+]i level [3]: a short [Ca^2+]i descent in the beginning and a slow [Ca^2+]i increases ensuing
- Effect on apoptosis (Annexin V+ cells), compound alone [4]: caused G0/G1 arrest and apoptosis

Source: publication PMC6609550, “Blockade of the forward Na^+/Ca^2+ exchanger suppresses the growth of glioblastoma cells through Ca^2+‐mediated cell death” (British Journal of Pharmacology, 2019)
